Literature values, collected in patent US11827744B2, “Bottlebrush copolymers and uses thereof” (Massachusetts Institute of Technology, priority 2016, dated 2023).

Key:
[1] = in vivo

Question: What does the source list for CCc1c2c(nc3ccc(O)cc13)-c1cc3c(c(=O)n1C2)COC(=O)[C@]3(O)CC [SN-38]?
Answer: water solubility: low water solubility; circulation life-times [1]: short circulation life-times
